From ChEMBL document CHEMBL1121678, “Antitumor agents. 44. Bis(helenalinyl) esters and related derivatives as novel potent antileukemic agents” (1981)

How the values were obtained:
Assay type in all cases: functional
Mus musculus [1] = assay: Antileukemic activity of compound against the P-388 lymphocytic leukemic BDF1 male mice at 2(mg/kg)/day, administered intraperitoneally; 11.5/9.66 (Treated/control)
Mus musculus [2] = assay: Antileukemic activity of compound against the P-388 lymphocytic leukemic BDF1 male mice at 30(mg/kg)/day, administered intraperitoneally; 7/9.66 (Treated/control)
Mus musculus [3] = assay: In vivo antileukemic activity against P-388 lymphocytic leukemia in BDF1 male mice at 8(mg/kg)/day intraperitoneal dose expressed as T/C
Mus musculus [4] = assay: Antileukemic activity of compound against the P-388 lymphocytic leukemic BDF1 male mice at 8(mg/kg)/day, administered intraperitoneally; 18.8/9.66 (Treated/control)
Mus musculus [5] = assay: In vivo antileukemic activity against P-388 lymphocytic leukemia in BDF1 male mice at 2(mg/kg)/day intraperitoneal dose expressed as T/C
Mus musculus [6] = assay: In vivo antileukemic activity against P-388 lymphocytic leukemia in BDF1 male mice at 30(mg/kg)/day intraperitoneal dose expressed as T/C
Mus musculus [7] = assay: In vivo antileukemic activity against P-388 lymphocytic leukemia in BDF1 male mice at 4(mg/kg)/day intraperitoneal dose expressed as T/C
Mus musculus [8] = assay: In vivo antileukemic activity against P-388 lymphocytic leukemia in BDF1 male mice at 60 mg/kg/day intraperitoneal dose expressed as T/C
Mus musculus [9] = assay: Antileukemic activity of compound against the P-388 lymphocytic leukemic BDF1 male mice at 15(mg/kg)/day, administered intraperitoneally; 9/9.66 (Treated/control)
Mus musculus [10] = assay: Antileukemic activity of compound against the P-388 lymphocytic leukemic BDF1 male mice at 4(mg/kg)/day, administered intraperitoneally; 16.5/9.66 (Treated/control)
Mus musculus [11] = assay: Antileukemic activity of compound against the P-388 lymphocytic leukemic BDF1 male mice at 60 mg/kg/day, administered intraperitoneally; 4.7/9.66 (Treated/control); conditions: route intraperitoneal
Mus musculus [12] = assay: In vivo antileukemic activity against P-388 lymphocytic leukemia in BDF1 male mice at 15(mg/kg)/day intraperitoneal dose expressed as T/C
Mus musculus [13] = assay: Antileukemic activity of compound against the P-388 lymphocytic leukemic BDF1 male mice at 25(mg/kg)/day, administered intraperitoneally; 10.6/9.66 (Treated/control)
Mus musculus [14] = assay: Antileukemic activity of compound against the P-388 lymphocytic leukemic BDF1 male mice at 60 mg/kg/day, administered intraperitoneally; 5.8/9.66 (Treated/control); conditions: route intraperitoneal
Mus musculus [15] = assay: Antileukemic activity of compound against the P-388 lymphocytic leukemic BDF1 male mice at 30(mg/kg)/day, administered intraperitoneally; 16.2/9.66 (Treated/control)
Mus musculus [16] = assay: Antileukemic activity of compound against the P-388 lymphocytic leukemic BDF1 male mice at 8(mg/kg)/day, administered intraperitoneally; 13.8/9.66 (Treated/control)
Mus musculus [17] = assay: Antileukemic activity of compound against the P-388 lymphocytic leukemic BDF1 male mice at 15(mg/kg)/day, administered intraperitoneally; 25.2/9.66 (Treated/control)
Mus musculus [18] = assay: In vivo antileukemic activity against P-388 lymphocytic leukemia in BDF1 male mice at 3(mg/kg)/day intraperitoneal dose expressed as T/C
Mus musculus [19] = assay: Antileukemic activity of compound against the P-388 lymphocytic leukemic BDF1 male mice at 3(mg/kg)/day, administered intraperitoneally; 13.8/9.66 (Treated/control)
Mus musculus [20] = assay: Antileukemic activity of compound against the P-388 lymphocytic leukemic BDF1 male mice at 15(mg/kg)/day, administered intraperitoneally; 11.4/9.66 (Treated/control)
Mus musculus [21] = assay: Antileukemic activity of compound against the P-388 lymphocytic leukemic BDF1 male mice at 25(mg/kg)/day, administered intraperitoneally; 13.3/9.66 (Treated/control)
Mus musculus [22] = assay: Antileukemic activity of compound against the P-388 lymphocytic leukemic BDF1 male mice at 8(mg/kg)/day, administered intraperitoneally; […]/[…] (Treated/control)
Mus musculus [23] = assay: In vivo antileukemic activity against P-388 lymphocytic leukemia in BDF1 male mice at 25(mg/kg)/day intraperitoneal dose expressed as T/C
Mus musculus [24] = assay: Antileukemic activity of compound against the P-388 lymphocytic leukemic BDF1 male mice at 15(mg/kg)/day, administered intraperitoneally; 11.1/9.66 (Treated/control)
Mus musculus [25] = assay: In vivo antileukemic activity against P-388 lymphocytic leukemia in BDF1 male mice at 5(mg/kg)/day intraperitoneal dose expressed as T/C
Mus musculus [26] = assay: Antileukemic activity of compound against the P-388 lymphocytic leukemic BDF1 male mice at 5(mg/kg)/day, administered intraperitoneally; 11.8/9.66 (Treated/control)
Mus musculus [27] = assay: Antileukemic activity of compound against the P-388 lymphocytic leukemic BDF1 male mice at 4(mg/kg)/day, administered intraperitoneally; 11.0/9.66 (Treated/control)
Mus musculus [28] = assay: Antileukemic activity of compound against the P-388 lymphocytic leukemic BDF1 male mice at 60 mg/kg/day, administered intraperitoneally; 12.6/9.66 (Treated/control); conditions: route intraperitoneal
Mus musculus [29] = assay: Antileukemic activity of compound against the P-388 lymphocytic leukemic BDF1 male mice at 30(mg/kg)/day, administered intraperitoneally; 15.2/9.66 (Treated/control)
Mus musculus [30] = assay: Antileukemic activity of compound against the P-388 lymphocytic leukemic BDF1 male mice at 2(mg/kg)/day, administered intraperitoneally; 11.6/9.66 (Treated/control)
Mus musculus [31] = assay: Antileukemic activity of compound against the P-388 lymphocytic leukemic BDF1 male mice at 15(mg/kg)/day, administered intraperitoneally; 13.6/9.66 (Treated/control)
Mus musculus [32] = assay: Antileukemic activity of compound against the P-388 lymphocytic leukemic BDF1 male mice at 8(mg/kg)/day, administered intraperitoneally; 11.8/9.66 (Treated/control)
Mus musculus [33] = assay: Antileukemic activity of compound against the P-388 lymphocytic leukemic BDF1 male mice at 15(mg/kg)/day, administered intraperitoneally; 13.2/9.66 (Treated/control)
Mus musculus [34] = assay: Antileukemic activity of compound against the P-388 lymphocytic leukemic BDF1 male mice at 15(mg/kg)/day, administered intraperitoneally (Treated/control)

Compound: C=C1C(=O)O[C@@H]2C[C@@H](C)[C@@H]3C=CC(=O)[C@@]3(C)[C@@H](OC(=O)CCCC(=O)O[C@H]3[C@@H]4C(=C)C(=O)O[C@@H]4C[C@@H](C)[C@@H]4C=CC(=O)[C@]43C)[C@H]12
- Average survival (days) (Mus musculus [1]): 11.2
- Average survival (days) (Mus musculus [2]): 7
- T/C (Mus musculus [3]): 195%
- Average survival (days) (Mus musculus [4]): 18.8
- T/C (Mus musculus [5]): 116%
- T/C (Mus musculus [6]): 72%
- T/C (Mus musculus [7]): 171%
- T/C (Mus musculus [8]): 48%
- Average survival (days) (Mus musculus [9]): 9
- Average survival (days) (Mus musculus [10]): 16.5
- Average survival (days) (Mus musculus [11]): 4.7
- T/C (Mus musculus [12]): 93%

Compound: C=C1C(=O)O[C@@H]2C[C@@H](C)[C@@H]3CCC(=O)[C@@]3(C)[C@@H](O)[C@H]12
- Average survival (days) (Mus musculus [13]): 10.6
- T/C (Mus musculus [8]): 110%

Compound: C=C1C(=O)O[C@@H]2C[C@@H](C)[C@@H]3C=CC(=O)[C@@]3(C)[C@@H](OC(=O)CC(=O)O[C@H]3[C@@H]4C(=C)C(=O)O[C@@H]4C[C@@H](C)[C@@H]4C=CC(=O)[C@]43C)[C@H]12
- Average survival (days) (Mus musculus [14]): 5.8
- Average survival (days) (Mus musculus [15]): 16.2
- Average survival (days) (Mus musculus [16]): 13.8
- T/C (Mus musculus [3]): 143%
- T/C (Mus musculus [6]): 168%
- Average survival (days) (Mus musculus [17]): 25.2
- T/C (Mus musculus [8]): 60%
- T/C (Mus musculus [18]): 143%
- Average survival (days) (Mus musculus [19]): 13.8
- T/C (Mus musculus [12]): 261%

Compound: C[C@@H]1C[C@H]2OC(=O)[C@@H](C)[C@H]2[C@H](O)[C@]2(C)C(=O)C=C[C@@H]12
- T/C (Mus musculus [3]): 111%
- Average survival (days) (Mus musculus [20]): 11.4
- Average survival (days) (Mus musculus [21]): 13.3
- Average survival (days) (Mus musculus [22]): 10.7
- T/C (Mus musculus [12]): 118%
- T/C (Mus musculus [23]): 138%

Compound: CC1C(=O)O[C@@H]2C[C@@H](C)[C@@H]3CCC(=O)[C@@]3(C)[C@@H](OC(=O)CC(=O)O[C@H]3[C@@H]4C(C)C(=O)O[C@@H]4C[C@@H](C)[C@@H]4CCC(=O)[C@]43C)[C@H]12 (stereo partly drawn)
- Average survival (days) (Mus musculus [24]): 11.1
- T/C (Mus musculus [25]): 122%
- Average survival (days) (Mus musculus [26]): 11.8
- T/C (Mus musculus [12]): 115%

Compound: C=C1C(=O)O[C@@H]2C[C@@H](C)[C@@H]3CCC(=O)[C@@]3(C)[C@@H](OC(=O)CCC(=O)O[C@H]3[C@@H]4C(=C)C(=O)O[C@@H]4C[C@@H](C)[C@@H]4CCC(=O)[C@]43C)[C@H]12
- Average survival (days) (Mus musculus [27]): 11
- Average survival (days) (Mus musculus [28]): 12.6
- Average survival (days) (Mus musculus [29]): 15.2
- T/C (Mus musculus [5]): 120%
- T/C (Mus musculus [6]): 157%
- T/C (Mus musculus [7]): 114%
- Average survival (days) (Mus musculus [30]): 11.6
- T/C (Mus musculus [8]): 130%
- Average survival (days) (Mus musculus [31]): 13.6
- T/C (Mus musculus [12]): 141%

Compound: C=C1C(=O)O[C@@H]2C[C@@H](C)[C@@H]3CCC(=O)[C@@]3(C)[C@@H](OC(=O)CC(=O)O[C@H]3[C@@H]4C(=C)C(=O)O[C@@H]4C[C@@H](C)[C@@H]4CCC(=O)[C@]43C)[C@H]12
- Average survival (days) (Mus musculus [32]): 11.8
- T/C (Mus musculus [3]): 122%
- Average survival (days) (Mus musculus [33]): 13.2
- T/C (Mus musculus [34]): 137%
